Experiment [1] relates to Pseudomonas aeruginosa (IMP-18). The experiment can be described thus: Broth microdilution antibiotic susceptibility (MicroScan dehydrated panels, NCCLS criteria). In kind it is cell-based. The conditions noted are these: for MIC: Pseudomonas aeruginosa, read-out: Microdilution MICs. The method, then:
The carbapenem-resistant P. aeruginosa isolate investigated in this study was recovered from the tracheal aspirate of a motorcycle accident victim in the southwestern United States.
The isolate was identified by the Phoenix system (Becton Dickinson Diagnostic Systems, Sparks, Md.). Antibiotic susceptibility was determined by broth microdilution method with investigational dehydrated panels provided by Dade Behring MicroScan (Sacramento, Calif.) according to the manufacturer's recommendations and interpreted according to National Committee for Clinical Laboratory Standards (NCCLS) criteria (National Committee for Clinical Laboratory Standards, “Performance Standards for Antimicrobial Susceptibility Testing, Fourteenth informational supplement 24, Wayne, Pa. (2004)).

Experiment [2] shares this test system. The experiment can be described thus: Etest metallo-beta-lactamase strip (imipenem with/without EDTA). The format is cell-based. The text has this: Metallo-beta-lactamase production was phenotypically investigated by using the Etest metallo-beta-lactamase strip (AB BIODISK, Solna, Sweden).
[3] abbreviates: carbapenem-resistant P. aeruginosa clinical isolate producing IMP-18, broth microdilution.

Experimental findings from US20090317807A1, “Primers for Use in Detecting Metallo-Beta-Lactamases” (priority 2006, published 2009) are described below.

In brackets after ≈: the same amount, converted by molar mass. Some results are limits rather than exact numbers.

`NCC[C@H](O)C(=O)N[C@@H]1C[C@H](N)[C@@H](O[C@H]2O[C@H](CN)[C@@H](O)[C@H](O)[C@H]2O)[C@H](O)[C@H]1O[C@H]1O[C@H](CO)[C@@H](O)[C@H](N)[C@H]1O` [Amikacin]: in experiment [1] (setting [3]), the MIC was 64 µg/mL (≈ 109 µM).

In the case of `C[C@H]1[C@H](NC(=O)/C(=N\OC(C)(C)C(=O)O)c2csc(N)n2)C(=O)N1S(=O)(=O)O` [Aztreonam], the MIC in experiment [1] (setting [3]) worked out at 32 µg/mL (≈ 73.5 µM).

Consider `CO/N=C(\C(=O)N[C@@H]1C(=O)N2C(C(=O)[O-])=C(C[N+]3(C)CCCC3)CS[C@H]12)c1csc(N)n1` [Cefepime], for which the MIC in experiment [1] (setting [3]) is over 64 µg/mL.

As to `CC(C)(O/N=C(\C(=O)N[C@@H]1C(=O)N2C(C(=O)[O-])=C(C[n+]3ccccc3)CS[C@H]12)c1csc(N)n1)C(=O)O` [Ceftazidime], the MIC in experiment [1] (setting [3]) is over 64 µg/mL.

As to `CO/N=C(\C(=O)N[C@@H]1C(=O)N2C(C(=O)O)=C(CSc3nc(=O)c(=O)[nH]n3C)CS[C@H]12)c1csc(N)n1` [Ceftriaxone], the MIC in experiment [1] (setting [3]) was over 64 µg/mL.

Consider `C[C@@H](O)[C@H]1C(=O)N2C(C(=O)O)=C(SCCN=CN)C[C@H]12` [Imipenem], for which the MIC in experiment [1] (setting [3]) was 64 µg/mL (≈ 214 µM); in experiment [2] (Pseudomonas aeruginosa, without EDTA), at least 256 µg/mL. The “MIC of imipenem by Etest in the presence of EDTA” value in experiment [2] (in the presence of EDTA) was 8 µg/mL. In experiment [2] (with vs without EDTA), the “fold reduction in the MIC of imipenem in the presence of EDTA” value is at least 32 fold.

Take `C[C@H]1COc2c(N3CCN(C)CC3)c(F)cc3c(=O)c(C(=O)O)cn1c23` [Levofloxacin]: the MIC in experiment [1] (setting [3]) was over 16 µg/mL.

With `CN(C)c1ccc(O)c2c1C[C@H]1C[C@H]3[C@H](N(C)C)C(O)=C(C(N)=O)C(=O)[C@@]3(O)C(O)=C1C2=O` [Minocycline], the MIC in experiment [1] (setting [3]) was over 128 µg/mL.

As to `CN(C)c1cc(NC(=O)CNC(C)(C)C)c(O)c2c1C[C@H]1C[C@H]3[C@H](N(C)C)C(O)=C(C(N)=O)C(=O)[C@@]3(O)C(O)=C1C2=O` [Tigecycline], the MIC in experiment [1] worked out at 32 µg/mL (≈ 54.6 µM).

On to Gentamicin, for which, in experiment [1] (setting [3]), the “Microdilution MICs” value was over 32 µg/mL.

For Polymyxin B, in experiment [1] (setting [3]), the “Microdilution MICs” value worked out at 4 µg/mL.
